Experimental data reported in patent US11180474B2 (BRISTOL-MYERS SQUIBB COMPANY, priority 2016, dated 2021).
pIC50: −log10 of the molar value. Structures can show the parent of a compound that is named as a salt.

Experiments:
human TLR9 = target: T1, human TLR9 (Homo sapiens, UniProt Q9NR96); experiment: TLR9 inhibition reporter assay (HEK-Blue cells, SEAP reporter, ODN2006 stimulation); assay type: cell-based; details: HEK-Blue cells overexpressing human TLR9, ODN2006 5 nM
T1 construct: host or cells: HEK-Blue cells
T1 sequence (Q9NR96 26-1032): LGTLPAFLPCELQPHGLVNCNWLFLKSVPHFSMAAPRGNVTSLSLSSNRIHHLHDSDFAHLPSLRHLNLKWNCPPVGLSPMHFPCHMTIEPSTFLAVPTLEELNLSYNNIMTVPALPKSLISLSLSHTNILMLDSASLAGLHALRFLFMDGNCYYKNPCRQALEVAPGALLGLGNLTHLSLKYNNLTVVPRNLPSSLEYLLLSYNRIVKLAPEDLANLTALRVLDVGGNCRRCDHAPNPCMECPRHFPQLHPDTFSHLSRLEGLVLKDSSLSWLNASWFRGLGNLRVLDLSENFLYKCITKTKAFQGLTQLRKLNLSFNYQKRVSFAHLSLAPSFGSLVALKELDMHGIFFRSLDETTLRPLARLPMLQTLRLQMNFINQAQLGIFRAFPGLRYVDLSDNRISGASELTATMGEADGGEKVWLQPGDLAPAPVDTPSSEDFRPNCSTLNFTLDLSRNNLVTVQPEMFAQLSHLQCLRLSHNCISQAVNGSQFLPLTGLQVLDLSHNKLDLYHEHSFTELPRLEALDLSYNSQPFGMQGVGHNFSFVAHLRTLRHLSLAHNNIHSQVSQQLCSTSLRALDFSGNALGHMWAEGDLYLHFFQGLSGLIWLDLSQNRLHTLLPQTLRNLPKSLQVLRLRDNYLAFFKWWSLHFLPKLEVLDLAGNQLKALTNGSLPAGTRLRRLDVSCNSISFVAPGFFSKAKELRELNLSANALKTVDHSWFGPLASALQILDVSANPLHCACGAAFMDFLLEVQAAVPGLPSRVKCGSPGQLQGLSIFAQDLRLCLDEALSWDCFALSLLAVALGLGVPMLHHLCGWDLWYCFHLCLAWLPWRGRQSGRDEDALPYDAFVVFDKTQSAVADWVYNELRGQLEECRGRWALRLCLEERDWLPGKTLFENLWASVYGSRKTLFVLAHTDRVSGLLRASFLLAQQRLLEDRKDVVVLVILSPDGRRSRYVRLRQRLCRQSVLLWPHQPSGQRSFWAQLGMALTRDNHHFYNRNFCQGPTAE
Description: (§1) TLR7/8/9 Inhibition Reporter Assays
HEK-Blue™-cells (Invivogen) overexpressing human TLR7, TLR8 or TLR9 receptors were used for screening inhibitors of these receptors using an inducible SEAP (secreted embryonic alkaline phosphatase) reporter gene under the control of the IFN-β minimal promoter fused to five NF-κB and AP-1-binding sites. Briefly, cells are seeded into Greiner 384 well plates (15000 cells per well for TLR7, 20,000 for TLR8 and 25,000 for TLR9) and then treated with test compounds in DMSO to yield a final dose response concentration range of 0.05 nM-50 μM. After a 30 minute compound pre-treatment at room temperature, the cells are then stimulated with a TLR7 ligand (gardiquimod at a final concentration of 7.5 μM), TLR8 ligand (R848 at a final concentration of 15.9 μM) or TLR9 ligand (ODN2006 at a final concentration of 5 nM) to activate NF-κB and AP-1 which induce the production of SEAP. After a 22 hour incubation at 37° C., 5% CO2, SEAP levels are determined with the addition of HEK-Blue™ Detection reagent (Invivogen), a cell culture medium that allows for detection of SEAP, according to manufacturer's specifications. The percent inhibition is determined as the % reduction in the HEK-Blue signal present in wells treated with agonist plus DMSO alone compared to wells treated with a known inhibitor.

human TLR7 = target: T2, human TLR7 (Homo sapiens, UniProt Q9NYK1); experiment: TLR7 inhibition reporter assay (HEK-Blue cells, SEAP reporter, gardiquimod stimulation); assay type: cell-based; details: HEK-Blue cells overexpressing human TLR7, gardiquimod 7.5 μM
T2 construct: host or cells: HEK-Blue cells
T2 sequence (Q9NYK1 27-1049): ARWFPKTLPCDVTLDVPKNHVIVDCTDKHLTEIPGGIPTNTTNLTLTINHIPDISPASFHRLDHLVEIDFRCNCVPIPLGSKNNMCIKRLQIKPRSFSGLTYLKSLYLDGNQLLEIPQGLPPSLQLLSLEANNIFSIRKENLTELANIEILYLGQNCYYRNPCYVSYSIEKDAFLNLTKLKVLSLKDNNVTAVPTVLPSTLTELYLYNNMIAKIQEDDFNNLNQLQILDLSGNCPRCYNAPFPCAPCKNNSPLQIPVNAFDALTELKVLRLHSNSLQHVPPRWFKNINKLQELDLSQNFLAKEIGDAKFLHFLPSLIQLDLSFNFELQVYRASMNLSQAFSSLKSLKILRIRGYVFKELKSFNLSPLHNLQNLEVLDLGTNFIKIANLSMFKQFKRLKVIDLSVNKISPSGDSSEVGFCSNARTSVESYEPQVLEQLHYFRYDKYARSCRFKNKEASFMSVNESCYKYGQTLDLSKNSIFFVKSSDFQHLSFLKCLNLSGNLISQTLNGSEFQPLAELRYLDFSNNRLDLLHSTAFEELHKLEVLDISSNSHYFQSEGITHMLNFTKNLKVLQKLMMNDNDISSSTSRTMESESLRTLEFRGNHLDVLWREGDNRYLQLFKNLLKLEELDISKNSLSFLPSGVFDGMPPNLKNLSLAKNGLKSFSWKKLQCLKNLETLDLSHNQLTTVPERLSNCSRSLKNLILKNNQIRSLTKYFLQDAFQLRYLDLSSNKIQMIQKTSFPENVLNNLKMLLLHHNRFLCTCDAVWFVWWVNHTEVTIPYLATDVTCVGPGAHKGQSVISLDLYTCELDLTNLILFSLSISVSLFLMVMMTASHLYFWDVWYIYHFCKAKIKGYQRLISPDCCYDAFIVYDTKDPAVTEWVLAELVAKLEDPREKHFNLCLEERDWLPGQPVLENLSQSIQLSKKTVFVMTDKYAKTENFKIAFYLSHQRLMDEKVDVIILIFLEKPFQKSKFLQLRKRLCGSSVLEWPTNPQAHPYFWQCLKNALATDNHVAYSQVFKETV
Description: as §1
Briefly, cells are seeded into Greiner 384 well plates (15000 cells per well for TLR7, 20,000 for TLR8 and 25,000 for TLR9) and then treated with test compounds in DMSO to yield a final dose response concentration range of 0.05 nM-50 μM. […] After a 22 hour incubation at 37° C., 5% CO2, SEAP levels are determined with the addition of HEK-Blue™ Detection reagent (Invivogen), a cell culture medium that allows for detection of SEAP, according to manufacturer's specifications. The percent inhibition is determined as the % reduction in the HEK-Blue signal present in wells treated with agonist plus DMSO alone compared to wells treated with a known inhibitor.

| Compound | pIC50 (human TLR9) | pIC50 (human TLR7) |
| --- | --- | --- |
| COc1ccc(-c2[nH]c3ccc(C4CCN(C5CCN(C6CCCC(C)C6)CC5)CC4)cc3c2C)cc1OC (stereo not shown) [Example 67, 2-(3,4-dimethoxyphenyl)-3-methyl-5-(1′-(3-methylcyclohexyl)-[1,4′-bipiperidin]-4-yl)-1H-indole] | 7.15 | 5.71 |
| CCC(CC)CN1CCC(c2ccc3[nH]c(-c4ccc(OC)c(OC)c4)c(C(C)C)c3c2)CC1 [Example 265, 2-(3,4-dimethoxyphenyl)-5-(1-(2-ethylbutyl)piperidin-4-yl)-3-isopropyl-1H-indole] | ≤ 4.30 | 6.74 |
| COc1ccc(-c2[nH]c3ccc(C4CCN(C[C@@H]5CCCN5)CC4)cc3c2C)cc1OC [Example 107, (S)-2-(3,4-dimethoxyphenyl)-3-methyl-5-(1-(pyrrolidin-2-ylmethyl)piperidin-4-yl)-1H-indole] | 6.21 | 5.88 |
| COc1ccc(-c2[nH]c3ccc(C4CCN(CC5CCCCN5)CC4)cc3c2C)cc1OC (stereo not shown) [Example 101, 2-(3,4-dimethoxyphenyl)-3-methyl-5-(1-(piperidin-2-ylmethyl)piperidin-4-yl)-1H-indole] | 6.68 | 5.75 |
| COc1ccc(-c2[nH]c3ccc(C4CCNCC4)cc3c2C)cc1OC [Example 1, 2-(3,4-dimethoxyphenyl)-3-methyl-5-(piperidin-4-yl)-1H-indole hydrochloride] | 5.23 | – |
| CCCC[C@@H](CO)NCC(=O)N1CCC(c2ccc3[nH]c(-c4ccc(OC)c(OC)c4)c(CC)c3c2)CC1 [Example 174, (S)-1-(4-(2-(3,4-dimethoxyphenyl)-3-ethyl-1H-indol-5-yl)piperidin-1-yl)-2-((1-hydroxyhexan-2-yl)amino)ethan-1-one] | 5.59 | 5.93 |
| COc1ccc(-c2[nH]c3ccc(C4CCN(Cc5cccn5C)CC4)cc3c2C)cc1OC [Example 29, 2-(3,4-dimethoxyphenyl)-3-methyl-5-(1-((1-methyl-1H-pyrrol-2-yl)methyl)piperidin-4-yl)-1H-indole] | 6.10 | 5.79 |
| COc1ccc(-c2[nH]c3ccc(C4CCN(CCN(C)CC(C)C)CC4)cc3c2C)cc1OC [Example 110, N-(2-(4-(2-(3,4-dimethoxyphenyl)-3-methyl-1H-indol-5-yl)piperidin-1-yl)ethyl)-N,2-dimethylpropan-1-amine] | 6.54 | 5.95 |
| CCc1c(-c2ccc(OC)c(OC)c2)[nH]c2ccc(C3CCN(C(=O)CN4CCOCC4)CC3)cc12 [Example 167, 1-(4-(2-(3,4-dimethoxyphenyl)-3-ethyl-1H-indol-5-yl)piperidin-1-yl)-2-morpholinoethan-1-one] | 4.48 | 6.75 |
| COc1ccc(-c2[nH]c3ccc(C4CCN(Cc5ccc(-n6ccnc6)cc5)CC4)cc3c2C(C)C)cc1OC [Example 263, 5-(1-(4-(1H-imidazol-1-yl)benzyl)piperidin-4-yl)-2-(3,4-dimethoxyphenyl)-3-isopropyl-1H-indole] | 6.10 | 7.09 |
| COc1ccc(-c2[nH]c3ccc(C4CCN(Cc5cccc6ncccc56)CC4)cc3c2C)cc1OC [Example 15, 5-((4-(2-(3,4-dimethoxyphenyl)-3-methyl-1H-indol-5-yl)piperidin-1-yl)methyl)quinoline] | 6.22 | 5.08 |
| COc1ccc(-c2[nH]c3ccc(C4CCN(C5CCCC(N)C5)CC4)cc3c2C)cc1OC (stereo not shown) [Example 105, 3-(4-(2-(3,4-dimethoxyphenyl)-3-methyl-1H-indol-5-yl)piperidin-1-yl)cyclohexan-1-amine] | 6.41 | 6.84 |
| CCc1c(-c2ccc(OC)c(OC)c2)[nH]c2ccc(C3CCN(C(=O)CNC45CC6CC(CC(O)(C6)C4)C5)CC3)cc12 [Example 163, 1-(4-(2-(3,4-dimethoxyphenyl)-3-ethyl-1H-indol-5-yl)piperidin-1-yl)-2-(((1r,3s,5R,7S)-3-hydroxyadamantan-1-yl)amino) ethan-1-one] | 5.66 | 6.55 |
| COc1ccc(-c2[nH]c3ccc(C4CCN(C5CCN(CC(C)C)C5)CC4)cc3c2C)cc1OC (stereo not shown) [Example 85, 2-(3,4-dimethoxyphenyl)-5-(1-(1-isobutylpyrrolidin-3-yl)piperidin-4-yl)-3-methyl-1H-indole] | 6.61 | 6.04 |
| COc1ccc(-c2[nH]c3ccc(C4CCN(C5CC(C)(C)N(C)C(C)(C)C5)CC4)cc3c2C)cc1OC [Example 22, 2-(3,4-dimethoxyphenyl)-3-methyl-5-(1′,2′,2′,6′,6′-pentamethyl-[1,4′-bipiperidin]-4-yl)-1H-indole] | 5.95 | 5.93 |
| COc1ccc(-c2[nH]c3ccc(C4CCN(Cc5ccc(N6CCN(C)CC6)cc5)CC4)cc3c2C)cc1OC [Example 42, 2-(3,4-dimethoxyphenyl)-3-methyl-5-(1-(4-(4-methylpiperazin-1-yl)benzyl)piperidin-4-yl)-1H-indole] | 6.92 | 6.16 |
| CCc1c(-c2ccc(OC)c(OC)c2)[nH]c2ccc(C3CCN(C(=O)CN4CCCN(C(C)=O)CC4)CC3)cc12 [Example 166, 2-(4-acetyl-1,4-diazepan-1-yl)-1-(4-(2-(3,4-dimethoxyphenyl)-3-ethyl-1H-indol-5-yl)piperidin-1-yl)ethan-1-one] | 5.19 | 6.52 |
| COc1ccc(-c2[nH]c3ccc(C4CCN(Cc5nccn5C)CC4)cc3c2C)cc1OC [Example 16, 2-(3,4-dimethoxyphenyl)-3-methyl-5-(1-((1-methyl-1H-imidazol-2-yl)methyl)piperidin-4-yl)-1H-indole] | 5.71 | – |
